SMILES strings stand for the structures. Where a name gives a salt, the structure may show the parent alone.

The results in this text go back to US20030055046A1, “Novel pyrido cyclohexenyl phenyl carboxamides tocolytic oxytocin receptor antagonists” (Wyeth, priority 2001, published 2003).

The target of one test is T1, human oxytocin receptor (Homo sapiens, UniProt P30559).
T1 construct: host or cells: CHO cells, stably transfected (pcDNA3.1 vector)
T1 sequence (P30559 1-389): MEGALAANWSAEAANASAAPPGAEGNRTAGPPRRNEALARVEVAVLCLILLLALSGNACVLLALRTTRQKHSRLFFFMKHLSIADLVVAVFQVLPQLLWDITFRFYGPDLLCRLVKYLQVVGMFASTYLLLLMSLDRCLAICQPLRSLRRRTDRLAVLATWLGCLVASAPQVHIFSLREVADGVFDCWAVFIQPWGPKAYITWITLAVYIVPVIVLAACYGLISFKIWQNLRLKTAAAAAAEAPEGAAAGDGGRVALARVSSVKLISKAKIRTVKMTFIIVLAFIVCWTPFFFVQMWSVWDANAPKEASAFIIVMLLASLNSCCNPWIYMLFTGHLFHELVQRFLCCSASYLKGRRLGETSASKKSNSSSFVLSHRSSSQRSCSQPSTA
The test can be described thus: Oxytocin binding in CHO cell membranes expressing human oxytocin receptors. To be noted: 100 nM, [3H]oxytocin. An excerpt:
Oxytocin binding in Chinese Hamster Ovary cell membranes expressing human oxytocin receptors
Chinese Hamster Ovary (CHO) cells stably transfected with the human oxytocin (cf. Tanizawa et al., U.S. Pat. No. 5,466,584 (1995) to Rohto Pharmaceutical Co. Ltd., Osaka, Japan) were obtained from M. Thibonnier, Case Western Reserve University School of Medicine, Cleveland, Ohio.
A. Passaging and Amplification of Cells:
CHO cells transfected with the human oxytocin receptors obtained from M. Thibonnier (pcDNA3.1 vector) are allowed to grow to confluency (approx. >90%) in T-150 flasks under sterile conditions, in a cell culture medium consisting of F-12 Nutrient Mixture (HAM) with L-glutamine (Gibco Cat.# 11765-054) containing 15 mM HEPES (Gibco Cat.# 15630-080), 1% antibiotic/antimycotic (add 5 mL 100×, Gibco Cat.# 15240-062 per 500 mL F-12), 400 μg/mL of Geneticin (add 4 mL of 50 mg/mL per 500 mL F-12) and 10% Fetal Bovine Serum (Qualified, heat inactivated, Gibco Cat.# 16140-063). The medium is removed by aspiration and the cells are washed with 10 mL of Hank's Balanced Salt solution (Gibco Cat.# 14175-095). The salt solution is removed by aspiration and the cells trypsinized with 5 mL of trypsin-EDTA (0.05% trypsin, 0.53 mM EDTA-4Na, Gibco Cat.# 25300-070) for 1 min The trypsin is removed by aspiration and the cells dislodged by tapping. Cell Culture medium (e.g. 30 mL for 1:30 split) is immediately added and mixed well to inactivate trypsin. 1 mL of detached cells is added to new culture flasks containing fresh Cell Culture medium (e.g. into 25 mL per T-150 flask), and mixed gently. The cells are incubated at 37° C. in 5% CO2. The medium is changed at 3 to 4 days interval (or as appropriate). The cells grow to confluency (approx. >75%-95%) within 7-8 days. All steps are done under sterile conditions.
The cells are washed twice gently with Hank's Balanced Salt solution (eg, use 10 mL per T-150 flask). The excess solution is removed and the cells bathed for 15-30 min. in an enzyme-free Cell Dissociation Buffer (eg, use 8 mL Hank's Based, Gibco Cat.# 13150-016 per T-150 flask) until cells are loosened. The contents are transferred to centrifuge tubes (50 mL size) kept in ice bath. All subsequent steps are done at 4° C. The tubes are centrifuged at 300×g for 15 min (1380 rpm on SORVAL, Model RT6000D, using rotor for 50 mL tubes). The supernatant is discarded and the cells suspended in homogenizing buffer (10 mM Tris-HCl containing 0.25 M sucrose and 1 mM EDTA, pH 7.4) ensuring that the volume of the buffer is about ten times the volume of the cell pellet. The cells are pooled into a centrifuge tube (50 mL) and homogenized with a Polytron at setting 6 for 10 sec. The homogenate is transferred into a Potter-Elvjehm homogenizer and homogenized with 3 strokes. The homogenate is centrifuged at 1500×g for 10 min at 4° C. (3100 rpm using SORVAL, model RT6000D, using rotor for 50 mL tubes). The pellet is discarded. The supernatant is centrifuged at 100,000×g for 60 min. at 4° C. (Beckman L8-80M ultracentrifuge; spin at 37,500 rpm with rotor type 70 Ti for 50 mL tubes; 38,000 rpm with type 80Ti for 15 mL tubes; or 35,800 rpm with rotor type 45Ti). The supernatant is discarded and the pellet suspended in 3 to 4 mL of Tris buffer (50 mM TRIS-HCl, pH 7.4). The protein content is estimated by the Bradford or Lowry method. The volume of the membrane suspension is adjusted with the membrane buffer (50 mM Tris-HCl containing 0.1 % BSA and 0.1 mM PMSF) to give 3.0 mg/mL (or as appropriate) of protein. The membranes are aliquoted and stored at −70° C.
C. Radioligand Binding Assay:
In wells of a 96-well format microtiter plate, is added 90, 110 or 130 μL (to make up a final volume of 200 μL) of assay buffer containing 50 mM of Tris-HCl (pH 7.4), […], 1 mg % aprotinin, 1 mg % leupeptin, 2 mg % 1,10-phenanthroline, 10 mg % trypsin inhibitor, and 0.1 mM PMSF. […]
`Cc1cc(C(=O)N2Cc3ccc(C(=O)N(C)CCc4ccncc4)n3Cc3ccccc32)ccc1C1=CCCCC1` [Example 13, 10-[4-(1-Cyclohex-1-en-1-yl)-3-methylbenzoyl]-N-methyl-N-[2-(4-pyridinyl)ethyl]-10,11-dihydro-5H-pyrrolo[2,1-c][1,4]benzodiazepine-3-carboxamide]: the “OT % inhibition @ 100 nM” value worked out at 95%.

For `Cc1cc(C(=O)N2Cc3ccc(C(=O)NCc4ccccn4)n3Cc3ccccc32)ccc1C1=CCCCC1` [Example 5, 10-[4-(1-Cyclohex-1-en-1-yl)-3-methylbenzoyl]-N-(2-pyridinylmethyl)-10,11-dihydro-5H-pyrrolo[2,1-c][1,4]benzodiazepine-3-carboxamide], the “OT % inhibition @ 100 nM” value is 34%.

In the case of `Cc1cc(C(=O)N2Cc3ccc(C(=O)N4CCN(c5ccncc5)CC4)n3Cc3ccccc32)ccc1C1=CCCCC1` [Example 12, {10-[4-(1-Cyclohex-1-en-1-yl)-3-methylbenzoyl]-10,11-dihydro-5H-pyrrolo[2,1--c][1,4]benzodiazepin-3-yl}[4-(4-pyridinyl)-1-piperazinyl]methanone], the “OT % inhibition @ 100 nM” value is recorded as 98%.

For `CC1=C(c2ccc(C(=O)N3Cc4ccc(C(=O)N(C)Cc5cccnc5)n4Cc4ccccc43)cc2C)CCC[C@H]1O` [Example 3, 10-[4-((3R)-3-Hydroxy-2-methyl-cyclohex-1-en-1-yl)-3-methyl-benzoyl]-10,11-dihydro-5H-pyrrolo[2,1-c][1,4]benzodiazepine-3-carboxylic acid methyl-pyridin-3-yl methyl-amide], the “OT % inhibition @ 100 nM” value is listed as 96%.

As to `CC1=C(c2ccc(C(=O)N3Cc4ccc(C(=O)N(C)Cc5cccnc5)n4Cc4ccccc43)cc2C)CCC[C@H]1O.O=C(O)C(O)C(O)C(=O)O` [Example 4, 10-[4-((3R)-3-Hydroxy-2-methyl-cyclohex-1-en-1-yl)-3-methyl-benzoyl]-10,11-dihydro-5H-pyrrolo[2,1-c][1,4]benzodiazepine-3-carboxylic acid methyl-pyridin-3-yl methyl-amide L-(+)-tartaric acid salt], the “OT % inhibition @ 100 nM” value was 99%.

`Cc1cc(C(=O)N2Cc3ccc(C(=O)NCCc4ccccn4)n3Cc3ccccc32)ccc1C1=CCCCC1` [Example 7, 10-[4-(1-Cyclohex-1-en-1-yl)-3-methylbenzoyl]-N-[2-(2-pyridinyl)ethyl]-10,11-pyrrolo[2,1-c][1,4]benzodiazepine-3-carboxamide]: the “OT % inhibition @ 100 nM” value amounted to 42%.

Consider `Cc1cc(C(=O)N2Cc3ccc(C(=O)N4CCN(c5ccccn5)CC4)n3Cc3ccccc32)ccc1C1=CCCCC1` [Example 9, {10-[4-(1-Cyclohex-1-en-1-yl)-3-methylbenzoyl]-10,11-dihydro-5H-pyrrolo[2,1-c][1,4]benzodiazepin-3-yl}[4-(2-pyridinyl)-1-piperazinyl]methanone], for which the “OT % inhibition @ 100 nM” value is reported as 37%.

On to `Cc1cc(C(=O)N2Cc3ccc(C(=O)NCc4cccnc4)n3Cc3ccccc32)ccc1C1=CCCCC1` [Example 6, 10-[4-(1-Cyclohex-1-en-1-yl)-3-methylbenzoyl]-N-(3-pyridinylmethyl)-10,11-dihydro-5H-pyrrolo[2,1-c][1 ,4]benzodiazepine-3-carboxamide], for which the “OT % inhibition @ 100 nM” value came out at 31%.

`Cc1cc(C(=O)N2Cc3ccc(C(=O)NCc4ccncc4)n3Cc3ccccc32)ccc1C1=CCCCC1` [Example 10, 10-[4-(1-Cyclohex-1-en-1-yl)-3-methylbenzoyl]-N-(4-pyridinylmethyl)-10,11-dihydro-5H-pyrrolo[2,1-c][1,4]benzodiazepine-3-carboxamide]: the “OT % inhibition @ 100 nM” value is reported as 45%.

`Cc1cc(C(=O)N2Cc3ccc(C(=O)N(C)CCc4ccccn4)n3Cc3ccccc32)ccc1C1=CCCCC1` [Example 8, 10-[4-(1-Cyclohex-1-en-1-yl)-3-methylbenzoyl]-N-methyl-N-[2-(2-pyridinyl)ethyl]-10,11-dihydro-5H-pyrrolo[2,1-c][1 ,4]benzodiazepine-3-carboxamide]: the “OT % inhibition @ 100 nM” value is given as 84%.

As to `Cc1cc(C(=O)N2Cc3ccc(C(=O)N(C)Cc4cccnc4)n3Cc3ccccc32)ccc1C1=CCCCC1` [Example 11, 10-[4-(1-Cyclohex-1-en-1-yl)-3-methylbenzoyl]-N-methyl-N-(3-pyridinylmethyl)-10,11-dihydro-5H-pyrrolo[2,1-c][1,4]benzodiazepine-3-carboxamide], the “OT % inhibition @ 100 nM” value is 87%.

The test is the same for the next values; noted with them: [3H]oxytocin, value in parentheses, read-out: OT IC50.
On to `COc1cc(C2=CCCCC2)c(Cl)cc1C(=O)N1Cc2ccc(C(=O)N(C)Cc3cccnc3)n2Cc2ccccc21` [Example 1, 10-(5-Chloro-4-cyclohex-1-en-1-yl-2-me3thoxybenzoyl)-N-methyl-N-(pyridin-3-ylmethyl)-10,11-dihydro-5H-pyrrolo [2,1-c][1,4]benzodiazepine-3-carboxamide], for which the IC50 worked out at 4.47 nM.

On to `COc1cc(C2=CCCCC2)c(Cl)cc1C(=O)N1Cc2ccc(C(=O)N(C)Cc3cccnc3)n2Cc2ccccc21` [Example 2, 10-(5-Chloro-4-cyclohex-1-en-1-yl-2-methoxybenzoyl)-N-methyl-N-(pyridin-3-ylmethyl)-10,11-dihydro-5H-pyrrolo[2,1-c][1,4]benzodiazepine-3-carboxamide L-(+)-tartaric acid salt hemihydrate], for which the IC50 was 3.17 nM.
